According to patent EP0559845B1, “Use of compounds in preventing endotoxin shock” (priority 1991, dated 1992):

Tested on: GTPase activity in membranes isolated from a macrophage (RAW 264.7) cell line
Assay: GTPase assay: basal or agonist-stimulated GTPase activity in macrophage membranes
Type: biochemical
Conditions: no LPS
Source text: We sought to directly evaluate the influence of LPS on possible G-protein function by examining agonist-enhanced GTPase activity, which is a hallmark of G-protein action. Moreover, because macrophages are one of the key cell types in the release of toxic mediators following an LPS challenge, we first assessed the capacity of LPS to influence GTPase activity in membranes isolated from RAW 264.7 cells, which is a highly LPS-responsive macrophage cell line. In these studies, GTPase activity was measured using a standard assay. The activity was determined using 2 µM γ-^32P-GTP in the presence of 0.1 mM ATP and 0.2 mM of the non-hydrolyzable ATP analog, AMPPNP, in order to minimize nonspecific nucleotidase activity in the membrane preparations. In the preferred practice of the present invention, the ability of a candidate compound to inhibit LPS-induced GTPase is assessed by measuring the release of ^32Pi from γ-^32P-GTP.
We first determined the optimal LPS concentration for GTPase stimulation. In all experiments, the LPS dose response curve was quite steep, and with the highest activity occurring around 200-300 µg LPS/ml.
Under these conditions, GTPase activation was evident at 100 µg LPS/ml (roughly 6 µM assuming an average MW ∼ 17,000 kDa), and the maximal effect was seen by 300 µg/ml LPS. (2) To show adenosine mucleotide synergism with LPS-stimulated GTPase activity, either 10µM ATP or 30µM ADP replace the 0.1 mM ATP and 0.2 mM AMPPNP of the standard assay described by Cassel et al. and Neer et al.
In the preferred assay, a candidate compound (.001 - 1000 µM) is dissolved or suspended in 100µl of a reaction buffer containing 20mM HEPES (pH 7.4), 0.01mM ATP or ADP, membranes isolated from RAW 264.7 cells, 2µM γ-^32P-GTP (3-9 X 10cpm/pmol), 5mM MgCl2, 18µM LPS (based on an estimated MW of 17,000 kDa for E. coli 0111:B4 endotoxin), and 250 mM ammonium sulfate. The reaction is initiated by the addition of the γ-^32P-GTP and the mixture incubated at 30-37°C for 15 to 30 minutes. The reaction is terminated by the addition of 500µl of 5% trichloroacetic acid and 500µl of 0.1gm/ml acid-activated charcoal in 5% trichloroacetic acid. The samples are centrifuged at 14,000xg for 10 minutes, and a 550µl aliquot of the supernatant is removed for scintillation counting. The supernatant will contain the released ^32Pi. The extent of GTPase inhibition is measured by the decrease in the amount of ^32Pi released from γ-^32P-GTP. Appropriate controls include mixtures with one of the following omitted: (i) test compound, (ii) endotoxin, and (iii) ATP, ADP or AMPPNP.
The macrophage-like cell line RAW 264.7 is cultured as described using RPMI 1640 medium supplemented with 10% fetal calf serum (FCS) containing < 0.1 ng/ml LPS. The membranes are resuspended in 20 mM HEPES (pH 7.4), 1 mM dithiothreitol, 1 mM EDTA and 10 µg leupeptin/ml. Aliquots are stored at -70°C until assayed.
To assess whether the LPS/ATP-enhanced GTPase is a "low Km" form, which would be expected for a variety of large and small MW G-proteins, as well as for various GAP and ARF-like proteins, as opposed to a "high Km" form, such as a phosphatase, we assayed the GTPase activity using 0.2 and 50 µM GTP essentially as described previously. […] The LPS and ATP stimulated a low Km GTPase activity by ∼30% and 70%, respectively, when added individually. This stimulation of low Km activity was slightly greater than that estimated using the standard assay conditions. […] The LPS stimulation of GTPase activity is enhanced by adenine nucleotides.

Structure (SMILES): CCCCCCCCCCC[C@@H](O)CC(=O)N[C@H]1[C@@H](OP(=O)(O)O)O[C@H](CO)[C@@H](O)[C@@H]1OC(=O)C[C@H](O)CCCCCCCCCCC [lipid X]
- effect on basal GTPase activity: slightly reducing basal activity
